# Source: patent US8697692B2, “Pyrrolo [3,2-c] pyridine-4-one 2-indolinone protein kinase inhibitors” (Shanghai Hengrui Pharmaceutical Co., Ltd., priority 2006, dated 2014)
# Test system: A431 cell
# Assay: Cell Proliferation Inhibition EGFR Assay (SRB method)
# Assay type: cell-based, homo sapient
# Conditions: Homo sapiens, A-431; A431 cells, 72 hours exposure, Sulforhodamine B; read-out: IC50 (A431)
# Summary of the method: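 A431 cells grown to ~85% confluence, then exposed 72 hours at 37° C to 6 to 7 serial concentrations of compound in DMEM/F12 + 10% FBS, final DMSO ≤0.5%. Growth measured by TCA fixation and sulforhodamine B staining; IC50 calculated from inhibition rates.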
row,IC50,Compound
1,67 nM,"CCN(CC)CCN1CCc2[nH]c(/C=C3\C(=O)Nc4ncnc(Nc5ccc(F)c(Cl)c5)c43)c(C)c2C1=O [Example 12, 4-(3-Chlor O-4-fluoro-phenylamino)-5-[5-(2-diethylamino-ethyl)-3-methyl-4-oxo-4,5,6,7-tetrahydro-1H-pyrrolo[3,2-c]pyridine-2-ylmethylene]-5,7-dihydro-pyrrolo[2,3-d]pyrimidin-6-one]"
2,10200 nM,"Cc1c(/C=C2\C(=O)Nc3ccc(Cl)cc32)[nH]c2c1C(=O)N(CCN1CCOCC1)CC2 [Example 16, 2-(5-Chloro-2-oxo-1,2-dihydro-indol-3-ylidenemethyl)-3-methyl-5-(2-morpholin-4-yl-ethyl)-1,5,6,7-tetrahydro-pyrrolo[3,2-c]pyridin-4-one]"
3,330 nM,"Cc1c(/C=C2\C(=O)Nc3ncnc(Nc4ccc(F)c(Cl)c4)c32)[nH]c2c1C(=O)N(CCN1CCOCC1)CC2 [Example 24, 4-(3-Chloro-4-fluoro-phenylamino)-5-[3-methyl-5-(2-morpholin-4-yl-ethyl)-4-oxo-4,5,6,7-tetrahydro-1H-pyrrolo[3,2-c]pyridine-2-ylmethylenene]-5,7-dihydro-pyrrolo[2,3-d]pyrimidin-6-one]"
4,330 nM,"CCN(CC)CCN1CCc2[nH]c(/C=C3\C(=O)Nc4cccc(Br)c43)c(C)c2C1=O [Example 30, 2-(4-Bromo-2-oxo-1,2-dihydro-indol-3-ylidenemethyl)-5-(2-diethylamino-ethyl)-3-methyl-1,5,6,7-tetrahydro-pyrrolo[3,2-c]pyridin-4-one]"
5,350 nM,"CCN(CC)CCN1CCc2[nH]c(/C=C3\C(=O)Nc4cccc(C5CCNCC5)c43)c(C)c2C1=O [Example 31, 5-(2-Diethylamino-ethyl)-3-methyl-2-(2-oxo-4-piperidin-4-yl-1,2-dihydro-indol-3-ylidenemethyl)-1,5,6,7-tetrahydro-pyrrolo[3,2-c]pyridin-4-one]"
6,3230 nM,"CCN(CC)CCN1CCc2[nH]c(/C=C3\C(=O)Nc4cccc(-c5ccc(Cl)cc5F)c43)c(C)c2C1=O [Example 34, 2-[4-(4-Chloro-2-fluoro-phenyl)-2-oxo-1,2-dihydro-indol-3-ylidenemethyl]-5-(2-diethylamino-ethyl)-3-methyl-1,5,6,7-tetrahydro-pyrrolo[3,2-c]pyridin-4-one]"
7,4350 nM,"CCN(CC)CCN1CCc2[nH]c(/C=C3\C(=O)Nc4ccc(OC)cc43)c(C)c2C1=O [Example 35, 5-(2-Diethylamino-ethyl)-2-(5-methoxy-2-oxo-1,2-dihydro-indol-3-ylidenemethyl)-3-methyl-1,5,6,7-tetrahydro-pyrrolo[3,2-c]pyridin-4-one]"
8,7320 nM,"CCN(CC)CCN1CCc2[nH]c(/C=C3\C(=O)Nc4cccc(-c5cccc(Cl)c5F)c43)c(C)c2C1=O [Example 36, 2-[4-(3-Chloro-2-fluoro-phenyl)-2-oxo-1,2-dihydro-indol-3-ylidenemethyl]-5-(2-diethylamino-ethyl)-3-methyl-1,5,6,7-tetrahydro-pyrrolo[3,2-c]pyridin-4-one]"
9,3850 nM,"CCN(CC)CCN1CCc2[nH]c(/C=C3\C(=O)Nc4cccc(CCO)c43)c(C)c2C1=O [Example 37, 5-(2-Diethylamino-ethyl)-2-[4-(2-hydroxy-ethyl)-2-oxo-1,2-dihydro-indol-3-ylidenemethyl]-3-methyl-1,5,6,7-tetrahydro-pyrrolo[3,2-c]pyridin-4-one]"
10,380 nM,"CCN(CC)CCN1CCc2[nH]c(/C=C3\C(=O)Nc4cccc(-c5cccc(F)c5F)c43)c(C)c2C1=O [Example 39, 5-(2-diethylamino-ethyl)-2-[4-(2,3-difluoro-phenyl)-2-oxo-1,2-dihydro-indol-3-ylidenemethyl]-3-methyl-1,5,6,7-tetrahydro-pyrrolo[3,2-c]pyridin-4-one]"
11,16500 nM,"Cc1c(/C=C2\C(=O)Nc3cccc(CCO)c32)[nH]c2c1C(=O)N(CCN1CCOCC1)CC2 [Example 42, 2-[4-(2-Hydroxy-ethyl)-2-oxo-1,2-dihydro-indol-3-ylidenemethyl]-3-methyl-5-(2-morpholin-4-yl-ethyl)-1,5,6,7-tetrahydro-pyrrolo[3,2-c]pyridin-4-one]"
12,15900 nM,"Cc1c(/C=C2\C(=O)Nc3ncc(Br)cc32)[nH]c2c1C(=O)N(CCN1CCOCC1)CC2 [Example 50, 2-(5-Bromo-2-oxo-1,2-dihydro-pyrrolo[2,3-b]pyridin-3-ylidenemethyl)-3-methyl-5-(2-morpholin-4-yl-ethyl)-1,5,6,7-tetrahydro-pyrrolo[3,2-c]pyridin-4-one]"
13,1900 nM,"Cc1c(/C=C2\C(=O)Nc3cccc(C4CCNCC4)c32)[nH]c2c1C(=O)N(CCN1CCOCC1)CC2 [Example 52, 3-Methyl-5-(2-morpholin-4-yl-ethyl)-2-(2-oxo-4-piperidin-4-yl-1,2-dihydro-indol-3-ylidenemethyl)-1,5,6,7-tetrahydro-pyrrolo[3,2-c]pyridin-4-one]"
14,2190 nM,"Cc1c(/C=C2\C(=O)Nc3cccc(-c4cccc(F)c4F)c32)[nH]c2c1C(=O)N(CCN1CCCC1)CC2 [Example 59, 2-[4-(2,3-Difluoro-phenyl)-2-oxo-1,2-dihydro-indol-3-ylidenemethyl]-3-methyl-5-(2-pyrrolidin-1-yl-ethyl)-1,5,6,7-tetrahydro-pyrrolo[3,2-c]pyridin-4-one]"
